Laboratory results: PMC9604483, “Crystal Structure of CYP3A4 Complexed with Fluorol Identifies the Substrate Access Channel as a High-Affinity Ligand Binding Site” (International Journal of Molecular Sciences, 2022)

Assays:
[1] = design: method as in PMID 18831537; details: cited from earlier work
WT CYP3A4 [2] = target: T1, WT CYP3A4 (Homo sapiens, UniProt P08684); assay: Spectral (absorbance) equilibrium titrations of fluorol with CYP3A4; type: binding
T1 construct: made in house
Protocol: (§1) Because fluorol strongly absorbs in the Soret region (Figure 3A), we conducted reverse rather than direct titrations by adding small amounts of CYP3A4 to the experimental cuvette with 3 μM fluorol solution and to a buffer-containing reference cuvette. Based on the difference absorbance spectra, two spectral phases were distinguished. During the first phase, when [CYP3A4] < 0.5 μM and [fluorol]:[CYP3A4] […], spectral perturbations were detected only in the Soret band (red spectra in Figure 3B,C). The lack of changes in the 380–390 nm region implies that the heme remained in a low-spin state. At [CYP3A4] > 0.5, a decrease in the Soret absorption was accompanied by the appearance of a 385 nm peak, indicating a low-to-high spin transition in the heme. For WT CYP3A4, the first spectral phase was more pronounced, with a ~3-fold larger decrease in the Soret band, whereas the 385 nm peak formed during the second phase was ~20% higher compared to that in the T224A mutant. The difference in the total absorbance change is better seen in Figure 3D, where titration plots for WT and T224A CYP3A4 are compared. The best fittings to the binding isotherms were obtained with a two-binding-site model.
(§2) Spectral Titrations—Equilibrium ligand binding to CYP3A4 was monitored using a Cary 300 spectrophotometer at 23 °C in 50 mM phosphate, pH 7.4, containing 0.6 mg/mL β-cyclodextrin (Santa Cruz Biotechnology, Dallas, TX, USA), using a 10 mm light path cuvette. Ten millimolar stock of fluorol (2-butyl-6-(butylamino)-1H-benzo[de]isoquinoline-1,3(2H)-dione; Exciton, Dayton, OH, USA) dissolved in methanol (ε440 nm = 14.0 mM^−1·cm^−1) was diluted with DMSO to prepare 1–3 mM working solutions. During spectral titrations, small aliquots of WT or T224A CYP3A4 were added to the experimental cuvette with a 3 μM fluorol solution (made from 1 mM stock in DMSO) and to the reference cuvette that contained buffer and the same amount of solvent. Difference absorbance spectra were recorded 5–10 min after fluorol addition, when no further spectral perturbations could be detected. The observed absorbance changes (peak-to-trough difference) were plotted vs. […] and fitted using a nonlinear regression analysis to derive dissociation constants.

T224A CYP3A4 [3] = target: T2, T224A CYP3A4 (Homo sapiens, UniProt P08684, T224A); assay: as above; type: binding
T2 construct: made in house
Protocol: as §1, §2

WT CYP3A4 [4] = target: T1, WT CYP3A4; assay: Stopped-flow kinetics of CYP3A4-fluorol complex formation (fluorol emission decay); type: binding
Protocol: (§3) During equilibrium titrations, fluorescence spectra were usually recorded 10–15 min after addition of CYP3A4, which could allow fluorol to adjust/change its initial binding position. To better understand the substrate/inhibitor effects, the kinetics of CYP3A4–fluorol complex formation were measured by monitoring decay of fluorol emission in a stopped-flow spectrophotometer. […] Fluorol binding to WT and T224A CYP3A4 was biphasic within the studied time interval (2 s). The rate constants for the fast and slow phases (kfast and kslow, respectively) determined for ligand-free and progesterone-bound CYP3A4 were virtually independent on fluorol concentration (Figure 5A–D). […] Likewise, kslow was elevated for ritonavir- and GS8-bound WT CYP3A4 but remained unchanged for the T224A mutant.
(§4) Kinetics of CYP3A4–fluorol complex formation were measured in a SX.18MV stopped-flow apparatus (Applied Photophysics, Leatherhead, UK) at 23 °C in 50 mM phosphate buffer, pH 7.4, containing 0.6 mg/mL β-cyclodextrin. WT or T224A CYP3A4 (2 μM) was mixed with 0.25–4 μM fluorol solution prepared from 1–3 mM stocks in DMSO. Equal amounts of DMSO were added to the protein solutions to avoid buffer-related changes in fluorol emission. Fluorescence changes were monitored with λex of 455 nm and a 495 nm cutoff emission filter. […] Kinetics were analyzed using the Igor Pro software (WaveMetrics, Oswego, OR, USA).

T224A CYP3A4 [5] = target: T2, T224A CYP3A4; assay: as above; type: binding
Protocol: as §3, §4

T1 sequence (P08684 with tags, fused parts or gaps): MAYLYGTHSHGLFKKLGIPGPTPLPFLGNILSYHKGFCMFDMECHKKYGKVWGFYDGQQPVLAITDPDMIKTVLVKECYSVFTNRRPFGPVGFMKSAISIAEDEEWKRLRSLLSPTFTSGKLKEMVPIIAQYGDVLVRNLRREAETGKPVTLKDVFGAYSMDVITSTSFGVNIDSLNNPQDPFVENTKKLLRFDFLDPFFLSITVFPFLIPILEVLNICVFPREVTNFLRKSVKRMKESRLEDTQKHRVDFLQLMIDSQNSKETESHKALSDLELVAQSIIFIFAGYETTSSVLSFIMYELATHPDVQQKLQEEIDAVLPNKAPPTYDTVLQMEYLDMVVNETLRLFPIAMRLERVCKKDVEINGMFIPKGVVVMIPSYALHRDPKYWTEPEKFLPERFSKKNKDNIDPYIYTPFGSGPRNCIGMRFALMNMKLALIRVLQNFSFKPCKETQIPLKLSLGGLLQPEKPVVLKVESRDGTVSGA
T2 sequence (P08684 with tags, fused parts or gaps T224A): as the sequence (P08684 with tags, fused parts or gaps) above, with T204A counted along it

SMILES: CCCCNc1ccc2c3c(cccc13)C(=O)N(CCCC)C2=O [fluorol, 2-butyl-6-(butylamino)-1H-benzo[de]isoquinoline-1,3(2H)-dione]
- Aqueous solubility [1]: limited aqueous solubility
- Difference in affinity between the two independent fluorol binding sites (WT CYP3A4 [2]; WT and T224A CYP3A4, spectrophotometric Kd): 8–10 fold
- Decrease in the Soret band during first spectral phase, WT relative to T224A (WT CYP3A4 [2]; [CYP3A4] < 0.5 μM): ~ 3 fold
- Height of 385 nm peak formed during second phase, WT compared to T224A (WT CYP3A4 [2]; higher in WT): ~ 20%
- Kd at 3 μM (WT CYP3A4 [2]; human, ligand-free WT CYP3A4 protein in buffer, pH 7.4, read-out: Kd, spectrophotometric, low-affinity site): 4200 ± 500 nM
- Percentage of the absorbance change due to binding of fluorol to the high-affinity site (WT CYP3A4 [2]; ligand-free WT CYP3A4): 28%
- Kd (WT CYP3A4 [2]; ligand-free WT CYP3A4, 3 μM fluorol, 23 °C, 50 mM phosphate pH 7.4, 0.6 mg/mL β-cyclodextrin, read-out: Kd, spectrophotometric, high-affinity site): 500 ± 40 nM
- Decrease in affinities when the hydroxyl group in Thr224 is eliminated (T224A CYP3A4 [3]; T224A vs WT, spectrophotometric Kd): 25–37%
- Kd at 3 μM (T224A CYP3A4 [3]; human, ligand-free T224A mutant CYP3A4 protein in buffer, pH 7.4, ligand-free T224A CYP3A4, read-out: Kd, spectrophotometric, low-affinity site): 6600 ± 800 nM
- Percentage of the absorbance change due to binding of fluorol to the high-affinity site (T224A CYP3A4 [3]; ligand-free T224A CYP3A4): 14%
- Kd (T224A CYP3A4 [3]; ligand-free T224A CYP3A4, read-out: Kd, spectrophotometric, high-affinity site): 670 ± 120 nM
- Decrease in amplitude of quenching (WT CYP3A4 [4]; WT, in the presence of GS8, equimolar CYP3A4 and fluorol): ~ 20%
- Increase in amplitude of quenching (WT CYP3A4 [4]; WT, in the presence of progesterone, equimolar CYP3A4 and fluorol): ~ 40%
- Decrease in amplitude of quenching (WT CYP3A4 [4]; WT, in the presence of ritonavir, equimolar CYP3A4 and fluorol): ~ 20%
- Fluorol binding kinetics (phases) (WT CYP3A4 [4]; within 2 s): biphasic
- Amplitude of quenching, larger in T224A (T224A CYP3A4 [5]; ligand-free and progesterone/GS8-bound T224A CYP3A4): 35–50%
- Amplitude of quenching, smaller in T224A (T224A CYP3A4 [5]; ritonavir-bound T224A CYP3A4): 60%
- Fluorol binding kinetics (phases) (T224A CYP3A4 [5]; within 2 s): biphasic
